Results on five compounds are retold here after ChEMBL document CHEMBL3108675, “Structure, absolute configuration, and antidiarrheal activity of a thymol derivative from Ageratina cylindrica” (J Nat Prod, 2014).

Structures can show the parent of a compound that is named as a salt.

One assay is filed under the species Rattus norvegicus. Briefly: Antidiarrheal activity in rat assessed as inhibition of charcoal-gum acacia-induced hyperperistalsis. The settings on record: read-out: ID50 (the source's name). Type of assay: functional.
The next assay has as its system Giardia intestinalis. Description: Antiprotozoal activity against Giardia lamblia IMSS:1090:1. In kind it is functional, organism-based. The settings on record: Giardia duodenalis.
Another assay concerns Entamoeba histolytica. Briefly: Antiprotozoal activity against Entamoeba histolytica HM-1:IMSS. Type of assay: functional, organism-based.

For the compound `CC(C)C(=O)Oc1cc(C=O)c(O)cc1[C@@]1(COC(=O)c2ccccc2)CO1`, in the assay listed under Rattus norvegicus, the ED50 is 0.85 µmol/kg. For the same compound, the IC50 in the assay with Giardia intestinalis was 167 µM; with Entamoeba histolytica, 185 µM.

Regarding `Oc1cc(O)c2c(c1)OC(c1ccc(O)c(O)c1)C(O)C2` (stereo not drawn) [CATECHIN], the IC50 was 117 µM in the assay with Giardia intestinalis and 226 µM in the assay with Entamoeba histolytica.

Turning to `CC[C@H]1CN2CCc3cc(OC)c(OC)cc3[C@@H]2C[C@@H]1C[C@H]1NCCc2cc(OC)c(OC)cc21` [EMETINE], the IC50 in the assay with Giardia intestinalis was determined as 0.83 µM.

As to `CN(C)C(=O)C(CCN1CCC(O)(c2ccc(Cl)cc2)CC1)(c1ccccc1)c1ccccc1` [LOPERAMIDE HYDROCHLORIDE], the ED50 in the assay filed under Rattus norvegicus came to 0.2 µmol/kg.

Compound `Cc1ncc([N+](=O)[O-])n1CCO` [METRONIDAZOLE] came in with an IC50 in the assay on Entamoeba histolytica of 0.23 µM.
